Results from the supplement of paper PMC10331698.
± gives the standard deviation of the averaged measurements.

What was measured:
Assay in all cases: level (log10 ratio to DMSO vehicle control); higher = higher biomarker level / cell amount than vehicle control
[1] = compound: FC(F)C(F)(F)COCC1CO1 [((2,2,3,3-Tetrafluoropropoxy)methyl)oxirane]; conditions: in DMSO
Method: (§1)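 BioMAP Diversity Plus panel of 12 human primary cell co-culture systems (3C, 4H, LPS, SAg, BT, BF4T, BE3C, CASM3C, HDF3CGF, KF3CT, MyoF, Mphg). Compounds were added 1 h before stimulation and left for 24 h (MyoF 48 h; BT 72 h for soluble read-outs or 6 d for IgG). Biomarkers were read by ELISA, cytotoxicity by SRB, PBMC viability and proliferation by Alamar Blue. Each well value was divided by the mean of 8 DMSO control wells on the same plate and log10 transformed; duplicate blinded samples were tested at 4 concentrations.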

[2] = compound: O=S(=O)(O)C(F)(F)C(F)(F)C(F)(F)C(F)(F)C(F)(F)C(F)(F)F [Perfluorohexanesulfonic acid]; conditions: in DMSO
Method: as §1

[3] = compound: C=C(C)C(=O)OCCC(F)(F)C(F)(F)C(F)(F)C(F)(F)C(F)(C(F)(F)F)C(F)(F)F [(Perfluoro-5-methylhexyl)ethyl 2-methylprop-2-enoate]; conditions: in DMSO
Method: as §1

[4] = compound: C=CC(=O)OCC(F)(F)C(F)(F)C(F)(F)C(F)(F)C(F)(F)C(F)(F)C(F)(F)F [1H,1H-Perfluorooctyl acrylate]; conditions: in DMSO
Method: as §1

[5] = compound: O=C(O)C(F)(F)C(F)(F)C(F)(F)C(F)(F)C(F)(F)C(F)(F)C(F)(F)C(F)F [9-H-Perfluorononanoic acid]; conditions: in DMSO
Method: as §1

[6] = compound: OCCCC(F)(F)C(F)(F)C(F)(F)C(F)(F)C(F)(F)C(F)(F)C(F)(F)F [7:3 Fluorotelomer alcohol]; conditions: 6700 nM; in DMSO
Method: as §1

[7] = compound: O=C(O)C(F)(F)C(F)(F)C(F)F [4H-Perfluorobutanoic acid]; conditions: in DMSO
Method: as §1

Test System | level (log10) ([1]; 6700 nM) | level (log10) ([1]; 20000 nM) | level (log10) ([1]; 60000 nM) | level (log10) ([2]; 6700 nM) | level (log10) ([2]; 20000 nM) | level (log10) ([2]; 60000 nM) | level (log10) ([3]; 6700 nM) | level (log10) ([3]; 20000 nM) | level (log10) ([4]; 6700 nM) | level (log10) ([4]; 20000 nM) | level (log10) ([4]; 60000 nM) | level (log10) ([5]; 6700 nM) | level (log10) ([5]; 20000 nM) | level (log10) ([5]; 60000 nM) | level (log10) [6] | level (log10) ([7]; 6700 nM) | level (log10) ([7]; 20000 nM) | level (log10) ([7]; 60000 nM)
MyoF:MMP-1 | 0.0115 ± 0.0035 | -0.031 ± 0.018 | 0.0045 ± 0.005 | -0.029 ± 0.0085 | -0.012 | -0.002 ± 0.0028 | -0.023 ± 0.0057 | -0.0365 ± 0.074 | -0.0135 ± 0.019 | -0.016 | 0.0275 ± 0.005 | -0.015 ± 0.0099 | -0.005 | -0.0215 ± 0.023 | -0.004 | -0.0355 ± 0.07 | -0.07 ± 0.054 | 0.022 ± 0.044
CASM3C:CD142/Tissue Factor | 0.0075 ± 0.013 | -0.0005 ± 0.037 | 0.0385 ± 0.083 | 0.0145 ± 0.047 | -0.0005 ± 0.023 | 0.005 ± 0.0014 | -0.037 ± 0.024 | -0.0265 ± 0.056 | 0.0095 ± 0.005 | -0.004 ± 0.0014 | -0.0005 ± 0.0092 | -0.0025 ± 0.0078 | -0.012 ± 0.028 | 0.006 ± 0.017 | -0.011 ± 0.016 | 0.0045 ± 0.14 | -0.039 ± 0.093 | -0.0415 ± 0.037
CASM3C:M-CSF | -0.0115 ± 0.021 | -0.029 ± 0.0014 | -0.0025 ± 0.084 | -0.007 ± 0.028 | -0.012 ± 0.014 | 0.0305 ± 0.00071 | -0.009 ± 0.0085 | 0.0195 ± 0.036 | -0.0205 ± 0.032 | 0.0135 ± 0.00071 | -0.0075 ± 0.0021 | -0.007 ± 0.0014 | -0.012 ± 0.0028 | 0.0205 ± 0.028 | 0.007 ± 0.0042 | 0.004 ± 0.045 | -0.009 ± 0.016 | 0.059 ± 0.027
KF3CT:TIMP-2 | -0.0135 ± 0.016 | -0.0115 ± 0.019 | -0.0045 ± 0.026 | 0.0005 ± 0.0064 | 0.012 ± 0.0042 | 0.019 ± 0.013 | -0.016 ± 0.03 | -0.041 ± 0.052 | -0.0075 ± 0.00071 | -0.0155 ± 0.018 | -0.0075 ± 0.032 | -0.0055 ± 0.03 | -0.01 ± 0.014 | 0.016 ± 0.017 | -0.0005 ± 0.028 | 0.002 ± 0.031 | -0.011 ± 0.016 | 0.004 ± 0.0099
CASM3C:CCL2/MCP-1 | -0.001 ± 0.0028 | -0.0105 ± 0.012 | 0.021 ± 0.075 | -0.0215 ± 0.018 | -0.013 ± 0.0085 | 0.0035 ± 0.00071 | 0.002 ± 0.023 | 0.0105 ± 0.005 | -0.0035 ± 0.0078 | -0.0095 ± 0.0035 | -0.004 ± 0.0071 | 0.0125 ± 0.0092 | -0.0015 ± 0.00071 | 0.017 ± 0.0071 | -0.0115 ± 0.012 | 0.006 | -0.0065 ± 0.012 | 0.0065 ± 0.016
CASM3C:CD141/Thrombomodulin | -0.0315 ± 0.012 | 0.0015 ± 0.0092 | 0.0225 ± 0.033 | 0.0005 ± 0.0064 | 0.0015 ± 0.005 | -0.0055 ± 0.022 | -0.0185 ± 0.069 | 0.0165 ± 0.098 | -0.002 ± 0.0028 | 0.0035 ± 0.011 | 0.002 ± 0.017 | -0.003 ± 0.0099 | -0.0075 ± 0.0035 | 0.0075 ± 0.0021 | 0 ± 0.0014 | -0.0005 ± 0.016 | 0 ± 0.081 | -0.0145 ± 0.028
HDF3CGF:SRB | 0.004 ± 0.0057 | -0.002 ± 0.02 | -0.011 ± 0.1 | 0.017 ± 0.011 | 0.0145 ± 0.022 | -0.009 ± 0.0085 | 0.0055 ± 0.0092 | 0.008 ± 0.0028 | -0.003 ± 0.0099 | 0.0015 ± 0.025 | 0.0115 ± 0.0092 | 0.022 ± 0.023 | 0.0825 ± 0.03 | 0.148 ± 0.034 | -0.014 ± 0.027 | -0.0125 ± 0.06 | -0.0095 ± 0.0035 | 0.0155 ± 0.022
HDF3CGF:EGFR | 0.012 ± 0.014 | 0.0065 ± 0.005 | 0.029 ± 0.041 | 0.0045 ± 0.025 | -0.0125 ± 0.039 | -0.021 ± 0.04 | -0.0695 ± 0.0078 | -0.0415 ± 0.0064 | 0.0075 ± 0.012 | 0.0265 ± 0.019 | -0.051 ± 0.093 | -0.011 ± 0.0028 | -0.024 ± 0.0057 | -0.034 ± 0.014 | -0.005 ± 0.12 | -0.0155 ± 0.054 | 0.0005 ± 0.019 | 0.0725 ± 0.12
